We go through seven sequences from patent publication US20020035061A1, “COMPOSITIONS AND METHODS FOR TREATING INFECTIONS USING CATIONIC PEPTIDES ALONE OR IN COMBINATION WITH ANTIBIOTICS” (priority 1996, published 2002).

Test systems include S. aureus; K. pneumoniae; S. marcescens; E. cloacae; A. calcoaceticus; S. epidermidis; S. maltophilia; E. faecalis; P. aeruginosa; E. coli.
What all share (assay type): cell-based

Read-outs that look alike come from different tables or passages of the source.

Broadly, the MIC is the lowest concentration found to suppress growth. Consider ILRWPWWPARRK [MBI 11H09CN], for which the MIC was 8 µg/mL in the assay with S. aureus (S. aureus SA014); 2 µg/mL in the assay with S. aureus (S. aureus SA093); 64 µg/mL against K. pneumoniae (K. pneumoniae KP001); more than 128 µg/mL against S. marcescens (S. marcescens SMS003); more than 128 µg/mL in the assay with E. cloacae (E. cloacae ECL007); 4 µg/mL in the assay with A. calcoaceticus (A. calcoaceticus AC002). Besides, the MIC was 16 µg/mL against S. epidermidis (S. epidermidis SE010); 64 µg/mL with S. maltophilia (S. maltophilia SMA002); 4 µg/mL with E. faecalis (E. faecalis EFS001); 64 µg/mL against E. faecalis (E. faecalis EFS008); more than 128 µg/mL against P. aeruginosa (P. aeruginosa PA004); 32 µg/mL against E. coli (E. coli ECO005).
On to ILKKNPNNPRRK [MBI 11G6ACN], for which the MIC was 64 µg/mL against S. aureus (S. aureus strain SA014); more than 128 µg/mL in the assay with K. pneumoniae (K. pneumoniae strain KP001); more than 128 µg/mL against S. marcescens (S. marcescens strain SMS003); more than 128 µg/mL against E. cloacae (E. cloacae strain ECL007); 4 µg/mL in the assay with A. calcoaceticus (A. calcoaceticus strain AC002); 32 µg/mL with S. epidermidis (S. epidermidis strain SE010). The MIC was more than 128 µg/mL against S. maltophilia (S. maltophilia strain SMA002), more than 128 µg/mL in the assay on E. faecalis (E. faecalis strain EFS008), more than 128 µg/mL in the assay on P. aeruginosa (P. aeruginosa strain PA004) and 64 µg/mL in the assay with E. coli (E. coli strain ECO005).
Take ILRWPWWPWRRKMILKKAGS [MBI 11B17CN]: the MIC was 2 µg/mL against S. aureus (S. aureus strain SA093); 16 µg/mL against K. pneumoniae (K. pneumoniae strain KP001); more than 128 µg/mL in the assay with S. marcescens (S. marcescens strain SMS003); more than 128 µg/mL against E. cloacae (E. cloacae strain ECL007); 2 µg/mL with A. calcoaceticus (A. calcoaceticus strain AC002); 4 µg/mL against S. epidermidis (S. epidermidis strain SE010). Moreover, the MIC against S. maltophilia (S. maltophilia strain SMA002) was 32 µg/mL; in the assay with E. faecalis (E. faecalis strain EFS008), 4 µg/mL; in the assay on P. aeruginosa (P. aeruginosa strain PA004), more than 128 µg/mL; against E. coli (E. coli strain ECO005) it was 8 µg/mL.
Regarding ILRWWVWWVWWRRK [MBI 11F6CN], the MIC with S. aureus (S. aureus SA014) is 16 µg/mL; in the assay with S. aureus (S. aureus SA093), 8 µg/mL; against K. pneumoniae (K. pneumoniae KP001), 32 µg/mL; against S. marcescens (S. marcescens SMS003), more than 128 µg/mL; in the assay on E. cloacae (E. cloacae ECL007), 64 µg/mL; with A. calcoaceticus (A. calcoaceticus AC002), 16 µg/mL. Also, the MIC was 8 µg/mL against S. epidermidis (S. epidermidis SE010); 64 µg/mL against S. maltophilia (S. maltophilia SMA002); 16 µg/mL in the assay with E. faecalis (E. faecalis EFS001); 16 µg/mL in the assay with E. faecalis (E. faecalis EFS008); 128 µg/mL in the assay on P. aeruginosa (P. aeruginosa PA004); 32 µg/mL in the assay on E. coli (E. coli ECO005).
Consider ILRWPWWAWRRK [MBI 11H08CN], for which the minimum inhibitory concentration (MIC) against S. aureus (S. aureus SA014) is 4 µg/mL; in the assay with S. aureus (S. aureus SA093), 1 µg/mL; in the assay on K. pneumoniae (K. pneumoniae KP001), 32 µg/mL; against S. marcescens (S. marcescens SMS003) it was more than 128 µg/mL; with E. cloacae (E. cloacae ECL007), more than 128 µg/mL; with A. calcoaceticus (A. calcoaceticus AC002), 4 µg/mL. Further, the MIC against S. epidermidis (S. epidermidis SE010) was 4 µg/mL; against S. maltophilia (S. maltophilia SMA002), 32 µg/mL; with E. faecalis (E. faecalis EFS001) it was 2 µg/mL; with E. faecalis (E. faecalis EFS008) it was 8 µg/mL; in the assay on P. aeruginosa (P. aeruginosa PA004), more than 128 µg/mL; with E. coli (E. coli ECO005), 8 µg/mL.
As for ILRWPAWPWRRK [MBI 11H06CN], the MIC is 8 µg/mL in the assay with S. aureus (S. aureus SA014); 1 µg/mL against S. aureus (S. aureus SA093); 64 µg/mL against K. pneumoniae (K. pneumoniae KP001); more than 128 µg/mL against S. marcescens (S. marcescens SMS003); more than 128 µg/mL in the assay on E. cloacae (E. cloacae ECL007); 8 µg/mL in the assay on A. calcoaceticus (A. calcoaceticus AC002). The MIC in the assay with S. epidermidis (S. epidermidis SE010) is 8 µg/mL; against S. maltophilia (S. maltophilia SMA002), 64 µg/mL; against E. faecalis (E. faecalis EFS001), 2 µg/mL; against E. faecalis (E. faecalis EFS008), 16 µg/mL; in the assay on P. aeruginosa (P. aeruginosa PA004) it was more than 128 µg/mL; with E. coli (E. coli ECO005), 16 µg/mL.
As to ILRWPWWPWRRKDMILKKAGS [MBI 11B18CN], the MIC against S. aureus (S. aureus strain SA093) is 2 µg/mL; against K. pneumoniae (K. pneumoniae strain KP001), 32 µg/mL; in the assay on S. marcescens (S. marcescens strain SMS003), more than 128 µg/mL; with E. cloacae (E. cloacae strain ECL007), more than 128 µg/mL; in the assay with A. calcoaceticus (A. calcoaceticus strain AC002), 2 µg/mL; against S. epidermidis (S. epidermidis strain SE010), 4 µg/mL. Further, the MIC was 64 µg/mL against S. maltophilia (S. maltophilia strain SMA002), 4 µg/mL against E. faecalis (E. faecalis strain EFS008), more than 128 µg/mL in the assay with P. aeruginosa (P. aeruginosa strain PA004) and 32 µg/mL in the assay on E. coli (E. coli strain ECO005).
